What all share (type): cell-based
Assay [1] relates to Neutrophils purified from human peripheral blood. The assay can be described thus: Human Neutrophil Transwell Migration Assay. To be noted: 37° C., 45 minutes, % of the maximum migration possible. An outline of the steps:
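Neutrophils (~50,000–100,000) were placed above 5-micron transwell inserts with test compound in the lower chamber and allowed to migrate 45 min at 37° C. Migrated cells were quantified by ATP luminescence; medium-only background was subtracted and values expressed as % of cells added directly to the bottom well.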

In another assay the test system is C. glabrata ATCC 90030. The settings on record: C. glabrata ATCC 90030; read at 50% growth inhibition for echinocandins (24 h), 100% for amphotericin B (48 h). The procedure: (§1) MIC and MEC assays were run as described in Example 31 with the following exceptions. Starting solutions of all antifungal agents were prepared in 100% DMSO. Stock concentrations were made at 50× the highest final assay concentration and serially diluted 2-fold, 16 times in a 96-well PCR plate (VWR 83007-374). Candida and Aspergillus suspensions from Sabouraud dextrose agar plate cultures were prepared in 0.85% saline at 0.5 McFarland standard (˜0.1 OD530 nm). Candida suspensions were diluted 1:500 in RPMI (MP Biomedicals, cat no. 1060124; buffered with MOPS and adjusted with NaOH to pH 7.0) to a concentration of ˜0.5-2.5×10^3 CFU/mL and Aspergillus suspensions were diluted 1:50 in RPMI to 0.4-5×10^4 CFU/mL final concentration. 98 μL of each cell suspension in RPMI were added to test wells in a 96-well assay plate (Costar cat. no. 3370). A Beckman Multimek 96 liquid handling robot was used to dispense 2 μL of each 50× stock compound into the plate containing 98 μL of each strain in RPMI (2% final solvent concentration). Plates were shaken then incubated at 35° C. for 24-48 h prior to reading. MIC values were read visually at 50% growth inhibition for echinocandins (24 h) and at 100% growth inhibition for amphotericin B (48 h). MEC values (24 h) were read with the aid of a microscope at the lowest echinocandin concentration where rounded/compact hyphal morphology was observed.

Assay [2] deals with C. parapsilosis ATCC 22019. To be noted: C. parapsilosis ATCC 22019; read at 50% growth inhibition for echinocandins (24 h), 100% for amphotericin B (48 h). The procedure:
as §1

Another assay relates to C. albicans ATCC 90028. To be noted: C. albicans ATCC 90028; read at 50% growth inhibition for echinocandins (24 h), 100% for amphotericin B (48 h). On the procedure: as §1
Another assay deals with C. krusei ATCC 14243. To be noted: C. krusei ATCC 14243; read at 50% growth inhibition for echinocandins (24 h), 100% for amphotericin B (48 h). The procedure:
as §1

A further assay relates to C. tropicalis ATCC 750. The settings on record: C. tropicalis ATCC 750; read at 50% growth inhibition for echinocandins (24 h), 100% for amphotericin B (48 h). On the procedure: as §1
The subject of a further assay is A. flavus ATCC MYA-3631. Description: MEC assay (Example 32). The settings on record: MEC values (24 h), rounded/compact hyphal morphology. The procedure: as §1
The subject of the next assay is A. fumigatus MYA-4609. Description: MEC assay (Example 32). The settings on record: MEC values (24 h), rounded/compact hyphal morphology. The procedure: as §1
The next assay relates to A. niger ATCC 16404. Description: MEC assay (Example 32). The settings on record: MEC values (24 h), rounded/compact hyphal morphology. The procedure:
as §1

The test system of the next assay is A. fumigatus ATCC 13073. Description: MEC assay (Example 32). To be noted: MEC values (24 h), rounded/compact hyphal morphology. On the procedure: as §1
A further assay concerns A. fumigatus MYA-3626. The assay can be described thus: MEC assay (Example 32). The settings on record: MEC values (24 h), rounded/compact hyphal morphology. The procedure:
as §1

The source of these data is patent US20160213742A1, “COMPOSITIONS AND METHODS FOR THE TREATMENT OF FUNGAL INFECTIONS” (priority 2013, published 2016).

Usually MIC stands for the smallest concentration in the dilution series that meets the test's criterion for growth inhibition. A lower MIC goes with a more susceptible organism.

In the case of `CC[C@H](C)C[C@H](C)CCCCCCCCC(=O)N[C@H]1C[C@@H](O)[C@@H](NCCN)NC(=O)[C@@H]2[C@@H](O)CCN2C(=O)[C@H]([C@H](O)CCNC(=O)[C@H](Cc2ccccc2)NC(=O)[C@H](CC(C)C)NC(=O)[C@H](CCSC)NC=O)NC(=O)[C@H]([C@H](O)[C@@H](O)c2ccc(O)cc2)NC(=O)[C@@H]2C[C@@H](O)CN2C(=O)[C@H]([C@@H](C)O)NC1=O` [Compound 1], the “% Neutrophil Migration” value in assay [1] (conc 0.001 μg/mL) is −4.7%; in assay [1] (conc 0.01 μg/mL), 67.9%; in assay [1] (conc 0.1 μg/mL), 70.7%; in assay [1] (conc 1 μg/mL), −10.6%; in assay [1] (conc 10 μg/mL), −11.2%.

With `CC[C@H](C)C[C@H](C)CCCCCCCCC(=O)N[C@H]1C[C@@H](O)[C@@H](OCCN)NC(=O)[C@@H]2[C@@H](O)CCN2C(=O)[C@H]([C@H](O)CCNC(=O)[C@H](Cc2ccccc2)NC(=O)[C@H](CC(C)C)NC(=O)[C@H](CCSC)NC=O)NC(=O)[C@H]([C@H](O)[C@@H](O)c2ccc(O)cc2)NC(=O)[C@@H]2C[C@@H](O)CN2C(=O)[C@H]([C@@H](C)O)NC1=O` [Compound 11], the “% Neutrophil Migration” value was −4.7% in [1] (conc 0.001 μg/mL); 80.3% in [1] (conc 0.01 μg/mL); 28.3% in [1] (conc 0.1 μg/mL); −8.0% in [1] (conc 1 μg/mL); −10.9% in assay [1] (conc 10 μg/mL).

“caspofungin acetate [reference compound]”: the MIC is 0.25 mg/L in the assay with C. glabrata ATCC 90030; 0.5 mg/L in [2]; 0.125 mg/L in the assay on C. albicans ATCC 90028; 0.25 mg/L in the assay on C. krusei ATCC 14243; 0.125 mg/L against C. tropicalis ATCC 750. Moreover, the MEC in the assay with A. flavus ATCC MYA-3631 turned out to be 0.06 µg/mL; in the assay on A. fumigatus MYA-4609 it was 0.06 µg/mL; with A. niger ATCC 16404 it was 0.06 µg/mL; in the assay on A. fumigatus ATCC 13073 it was 0.03 µg/mL; in the assay with A. fumigatus MYA-3626, 0.06 µg/mL.
